Consider 15 compounds from patent US12070455B2, “Thienopyrrole compounds” (Gilead Sciences, Inc., priority 2021, dated 2024).

Each structure is given as a SMILES string.

The target of one assay is T1, TLR7 (Homo sapiens, UniProt Q9NYK1).
T1 construct: Human peripheral blood mononuclear cells (PBMCs) consist of lymphocytes, monocytes and dendritic cells that express TLR7, TLR8 and TLR9; endogenous in cells; host or cells: cryopreserved human PBMCs from healthy donors
T1 sequence (Q9NYK1 27-1049): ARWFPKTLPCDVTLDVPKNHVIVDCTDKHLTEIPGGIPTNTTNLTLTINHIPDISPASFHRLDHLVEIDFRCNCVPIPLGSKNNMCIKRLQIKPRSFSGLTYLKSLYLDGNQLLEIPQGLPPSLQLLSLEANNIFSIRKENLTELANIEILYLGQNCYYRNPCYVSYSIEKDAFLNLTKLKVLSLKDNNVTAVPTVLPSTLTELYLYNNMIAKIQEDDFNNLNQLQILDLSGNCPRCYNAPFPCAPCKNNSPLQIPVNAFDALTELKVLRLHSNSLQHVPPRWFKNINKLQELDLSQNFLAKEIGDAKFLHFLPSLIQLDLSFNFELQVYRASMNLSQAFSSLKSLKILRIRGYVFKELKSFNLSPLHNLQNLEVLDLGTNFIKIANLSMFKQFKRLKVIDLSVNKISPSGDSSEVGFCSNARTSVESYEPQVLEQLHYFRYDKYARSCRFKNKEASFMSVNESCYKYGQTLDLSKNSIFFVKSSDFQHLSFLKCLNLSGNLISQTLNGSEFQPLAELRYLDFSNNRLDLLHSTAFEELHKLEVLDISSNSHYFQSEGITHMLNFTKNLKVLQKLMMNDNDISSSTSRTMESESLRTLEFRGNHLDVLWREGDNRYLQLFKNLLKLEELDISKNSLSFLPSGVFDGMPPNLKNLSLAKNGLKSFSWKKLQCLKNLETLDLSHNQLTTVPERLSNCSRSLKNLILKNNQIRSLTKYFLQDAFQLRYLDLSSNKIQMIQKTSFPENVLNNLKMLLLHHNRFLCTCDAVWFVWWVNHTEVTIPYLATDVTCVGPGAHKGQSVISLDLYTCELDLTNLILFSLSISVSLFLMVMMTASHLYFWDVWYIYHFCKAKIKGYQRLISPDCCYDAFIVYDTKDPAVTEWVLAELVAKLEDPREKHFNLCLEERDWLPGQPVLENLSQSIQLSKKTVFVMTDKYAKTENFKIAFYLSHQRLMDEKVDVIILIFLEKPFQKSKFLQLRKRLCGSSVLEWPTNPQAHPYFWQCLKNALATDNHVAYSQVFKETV
The assay is described as follows: TLR7 human peripheral blood mononuclear cell (PBMC) cell-based assay. The following applies: human PBMCs; 1 h with test antagonist, then TLR7 agonist GS-986 400 nM for 6 h; cytokines (IL-6 and IFNα) in supernatant; read-out: TLR-7 EC50. The text has this: TLR7/9 Human Peripheral Blood Mononuclear Cell (PBMC) Cell-Based Assay
Human peripheral blood mononuclear cells (PBMCs) consist of lymphocytes, monocytes and dendritic cells that express TLR7, TLR8 and TLR9. These cells respond to TLR7, TLR8 and TLR9 ligand stimulation and produce cytokines and chemokines in vitro and in vivo. Human PBMCs are therefore suitable to be used in a cell-based assay to assess the in vitro potency of a TLR 7, 8, and/or 9 antagonist.
Cryopreserved human PBMCs from healthy donors were thawed and resuspended in RPMI-1640 media with L-glutamine (Corning) supplemented with 10% Fetal Bovine Serum (Hyclone) and 1× Penicillin-Streptomycin (Corning). After counting, the cell density was adjusted to 2 million cells/ml and incubated for 1 hour at 37° C., 5% CO2 for recovery. Following the recovery, the cells were plated by adding 50 μl per well (100,000 cells) to 384-well cell culture plates (Greiner) containing 250 nl of test antagonists in 100% DMSO per well, in a 10 points dose response in quadruplicates. PBMCs were incubated in the presence of test antagonists for one hour at 37° C., 5% CO2 before being stimulated with a TLR7 or TLR9 agonist. GS-986 (Gilead Sciences) was used as the TLR7 agonist at a final concentration of 400 nM. ODN-2216 (InvivoGen) was used as the TLR9 agonist at a final concentration of 3 μM. PBMCs were incubated in the presence of the test antagonist and the TLR7 (or TLR9) agonist for an additional 6 hours at 37° C., 5% CO2. At the end of the incubation, the cell culture plates were centrifuged at 500 g for 5 min, and the cell culture supernatant was collected. The level of cytokines (IL-6 and IFNα) in the supernatant was measured by electrochemiluminescence immunoassays (Mesoscale Discovery) following manufacturer's recommended protocols. The level of cytokine measured was plotted against the test antagonist concentration and fitted to a sigmoidal function to determine the EC50, which are shown below in Table 6.

The next assay addresses T2, TLR8 (Homo sapiens, UniProt Q9NR97).
T2 construct: Human peripheral blood mononuclear cells (PBMCs) consist of lymphocytes, monocytes and dendritic cells that express TLR7, TLR8 and TLR9; endogenous in cells; host or cells: cryopreserved human PBMCs from healthy donors
T2 sequence (Q9NR97 27-1041): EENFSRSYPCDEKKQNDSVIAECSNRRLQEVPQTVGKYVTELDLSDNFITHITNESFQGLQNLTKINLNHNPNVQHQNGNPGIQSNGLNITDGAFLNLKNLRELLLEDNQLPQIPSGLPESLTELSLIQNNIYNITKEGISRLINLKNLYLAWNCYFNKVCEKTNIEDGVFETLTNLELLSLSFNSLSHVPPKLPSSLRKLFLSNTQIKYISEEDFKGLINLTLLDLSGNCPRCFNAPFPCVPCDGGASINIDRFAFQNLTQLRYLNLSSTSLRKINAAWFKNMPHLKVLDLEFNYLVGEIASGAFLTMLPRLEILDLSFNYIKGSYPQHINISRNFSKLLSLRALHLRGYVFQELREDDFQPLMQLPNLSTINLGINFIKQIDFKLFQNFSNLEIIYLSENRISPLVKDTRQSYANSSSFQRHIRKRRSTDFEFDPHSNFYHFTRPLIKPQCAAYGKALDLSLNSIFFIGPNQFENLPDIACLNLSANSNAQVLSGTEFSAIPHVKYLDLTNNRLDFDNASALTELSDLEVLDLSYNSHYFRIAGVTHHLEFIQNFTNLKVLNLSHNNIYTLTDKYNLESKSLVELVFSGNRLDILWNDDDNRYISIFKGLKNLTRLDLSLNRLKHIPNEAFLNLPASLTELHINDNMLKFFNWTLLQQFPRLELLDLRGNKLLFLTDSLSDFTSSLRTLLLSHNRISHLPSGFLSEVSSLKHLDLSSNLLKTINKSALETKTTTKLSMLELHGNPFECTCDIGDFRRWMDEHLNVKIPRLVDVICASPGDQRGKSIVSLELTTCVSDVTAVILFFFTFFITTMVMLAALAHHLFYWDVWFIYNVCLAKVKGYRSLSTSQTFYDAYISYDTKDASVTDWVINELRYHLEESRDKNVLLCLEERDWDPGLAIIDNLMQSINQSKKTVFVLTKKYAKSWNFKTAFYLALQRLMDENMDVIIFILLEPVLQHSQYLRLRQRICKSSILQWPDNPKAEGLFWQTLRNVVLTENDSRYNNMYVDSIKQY
The assay is described as follows: TLR8 human peripheral blood mononuclear cell (PBMC) cell-based assay. The settings on record: human PBMCs; 1 h with antagonist, then TLR8 agonist Compound A 800 nM for 6 h; cytokines (TNFa and IL12p40) in supernatant; read-out: TLR-8 EC50. As to the method: TLR8 Human Peripheral Blood Mononuclear Cell (PBMC) Cell-Based Assay
Cryopreserved human PBMCs from healthy donors were thawed and resuspended in RPMI-1640 media with L-glutamine (Corning) supplemented with 10% Fetal Bovine Serum (Hyclone) and 1× Penicillin-Streptomycin (Corning). After counting, the cell density was adjusted to 2 million cells/ml and incubated for 1 hour at 37° C., 5% CO2 for recovery. Following the recovery, the cells were plated by adding 50 μl per well (100,000 cells) to 384-well cell culture plates (Greiner) containing 250 nl of test antagonists in 100% DMSO per well, in a 10 points dose response in quadruplicates. PBMCs were incubated in the presence of antagonists for one hour at 37° C., 5% CO2 before being stimulated with TLR8 agonist. Compound A (Gilead Sciences, U.S. Pat. No. 10,285,990) was used as the TLR8 agonist at a final concentration of 800 nM. PBMCs were incubated in the presence of antagonist and the TLR8 agonist for an additional 6 hours at 37° C., 5% CO2. At the end of the incubation, the cell culture plates were centrifuged at 500 g for 5 min, and the cell culture supernatant was collected. The level of cytokines (TNFa and IL12p40) in the supernatant was measured by electrochemiluminescence immunoassays (Mesoscale Discovery) following manufacturer's recommended protocols. The level of cytokine measured was plotted against the antagonist concentration and fitted to a sigmoidal function to determine the EC50, which are shown below in Table 6.

For the compound `Cc1c(C2CCNCC2)sc2[nH]c(-c3cn4ncnc4c4c3CCC4)c(C(C)C)c12` [Example 1, 5-(8,9-dihydro-7H-cyclopenta[c][1,2,4]triazolo[1,5-a]pyridin-6-yl)-4-isopropyl-3-methyl-2-(piperidin-4-yl)-6H-thieno[2,3-b]pyrrole], the EC50 on TLR7 was 0.11 nM; at TLR8, 1.89 nM.

Take `Cc1c(C2CC3CCC(C2)N3)sc2[nH]c(-c3cn4ncnc4c4c3CCC4)c(C(C)C)c12` (stereo not drawn) [Example 2]: the EC50 stood at 0.95 nM at TLR7 and 3.94 nM on TLR8.

Turning to `Cc1c(C2C[C@@H]3C[C@H]2CN3)sc2[nH]c(-c3cn4ncnc4c4c3CCC4)c(C(C)C)c12` (stereo partly drawn) [Example 3], the EC50 on TLR7 was found to be 0.77 nM; at TLR8, 0.31 nM.

As for `Cc1c(C23CCNCC2C3)sc2[nH]c(-c3cn4ncnc4c4c3CCC4)c(C(C)C)c12` (stereo not drawn) [Example 5, 2-(3-azabicyclo[4.1.0]heptan-6-yl)-5-(8,9-dihydro-7H-cyclopenta[c][1,2,4]triazolo[1,5-a]pyridin-6-yl)-4-isopropyl-3-methyl-6H-thieno[2,3-b]pyrrole], the EC50 stood at 0.23 nM at TLR7 and 1.76 nM on TLR8.

For `Cc1c(C2CCN(CC(N)=O)CC2)sc2[nH]c(-c3cn4ncnc4c4c3CCC4)c(C(C)C)c12` [Example 6, 2-(4-(5-(8,9-dihydro-7H-cyclopenta[c][1,2,4]triazolo[1,5-a]pyridin-6-yl)-4-isopropyl-3-methyl-6H-thieno[2,3-b]pyrrol-2-yl)piperidin-1-yl)acetamide], the figures for the EC50 on TLR7 and on TLR8 were 0.35 nM and 3.06 nM, respectively.

As to `Cc1c(C2CC3CCC(C2)N3CC(N)=O)sc2[nH]c(-c3cn4ncnc4c4c3CCC4)c(C(C)C)c12` (stereo not drawn) [Example 7], the EC50 was 0.78 nM at TLR7 and 3.91 nM on TLR8.

For `Cc1c(C2C[C@@H]3C[C@H]2CN3CC(N)=O)sc2[nH]c(-c3cn4ncnc4c4c3CCC4)c(C(C)C)c12` (stereo partly drawn) [Example 8], the EC50 at TLR7 worked out at 0.69 nM; at TLR8, 0.14 nM.

As to `Cc1c(C2CC3(CCN(CC(N)=O)C3)C2)sc2[nH]c(-c3cn4ncnc4c4c3CCC4)c(C(C)C)c12` (stereo not drawn) [Example 9], the figures for the EC50 at TLR7 and on TLR8 were 1.17 nM and 0.32 nM, respectively.

For the compound `Cc1c(C23CCN(CC(N)=O)CC2C3)sc2[nH]c(-c3cn4ncnc4c4c3CCC4)c(C(C)C)c12` (stereo not drawn) [Example 10], the EC50 on TLR7 worked out at 0.26 nM; on TLR8 it was 15.3 nM.

For `Cc1c(C2CCN(S(=O)(=O)N3CCNCC3)CC2)sc2[nH]c(-c3cn4ncnc4c4c3CCC4)c(C(C)C)c12` [Example 11, 5-(8,9-dihydro-7H-cyclopenta[c][1,2,4]triazolo[1,5-a]pyridin-6-yl)-4-isopropyl-3-methyl-2-(1-(piperazin-1-ylsulfonyl)piperidin-4-yl)-6H-thieno[2,3-b]pyrrole], the results for the EC50 on TLR7 and on TLR8 were 0.32 nM and 4.7 nM, respectively.

Turning to `Cc1c(C2CCN(CC3(C)COC3)CC2)sc2[nH]c(-c3cn4ncnc4c4c3CCC4)c(C(C)C)c12` [Example 12, 5-(8,9-dihydro-7H-cyclopenta[c][1,2,4]triazolo[1,5-a]pyridin-6-yl)-4-isopropyl-3-methyl-2-(1-((3-methyloxetan-3-yl)methyl)piperidin-4-yl)-6H-thieno[2,3-b]pyrrole], the values for the EC50 at TLR7 and on TLR8 were 6.08 nM and 4.74 nM, respectively.

Take `Cc1c(C2CCN(Cc3ccn(C)n3)CC2)sc2[nH]c(-c3cn4ncnc4c4c3CCC4)c(C(C)C)c12` [Example 13]: the EC50 at TLR7 is 1.44 nM; on TLR8, 5.84 nM.

On to `Cc1c(C2CCN(C(=O)[C@H]3COCCN3)CC2)sc2[nH]c(-c3cn4ncnc4c4c3CCC4)c(C(C)C)c12` [Example 14, (R)-(4-(5-(8,9-dihydro-7H-cyclopenta[c][1,2,4]triazolo[1,5-a]pyridin-6-yl)-4-isopropyl-3-methyl-6H-thieno[2,3-b]pyrrol-2-yl)piperidin-1-yl)(morpholin-3-yl)methanone], for which the figures for the EC50 at TLR7 and at TLR8 were 0.58 nM and 4.87 nM, respectively.

Consider `Cc1c(C2CCN(C(=O)[C@@H]3COCCN3)CC2)sc2[nH]c(-c3cn4ncnc4c4c3CCC4)c(C(C)C)c12` [Example 15], for which the values for the EC50 on TLR7 and at TLR8 were 0.29 nM and 5.26 nM, respectively.

On to `Cc1c(C2CCN(C(=O)[C@H]3C[C@@H](F)CN3)CC2)sc2[nH]c(-c3cn4ncnc4c4c3CCC4)c(C(C)C)c12` [Example 16], for which the EC50 on TLR7 was 1.46 nM; at TLR8, 12.5 nM.

Usually EC50 stands for the concentration giving half of the maximal effect.
